# How the values were obtained:
# Histamine H1 receptor = Histamine H1 receptor (Homo sapiens, UniProt P35367); assay: (§1) PDSP Secondary Binding target: HRH1 - Compounds are tested at 10 uM concentration, plate are incubated at room temperature in the dark for 90 minutes. Reaction are stopped by vacuum filtration onto 0.3% polyethyleneimine soaked filter mats using Filtermate harvester. Scintillation cocktail is then melted onto microwave-dried filters on a hot plate and the radio activity is counted in Microbia counter.
# [1] = target: Delta-type opioid receptor (Homo sapiens, UniProt P41143); assay: as §1, with “OPRD1” for “HRH1”
# [2] = target: T1, 5-hydroxytryptamine receptor 3A (Homo sapiens, UniProt P46098); assay: as §1, with “HTR3A” for “HRH1”
# T1 sequence (P46098 whole entry): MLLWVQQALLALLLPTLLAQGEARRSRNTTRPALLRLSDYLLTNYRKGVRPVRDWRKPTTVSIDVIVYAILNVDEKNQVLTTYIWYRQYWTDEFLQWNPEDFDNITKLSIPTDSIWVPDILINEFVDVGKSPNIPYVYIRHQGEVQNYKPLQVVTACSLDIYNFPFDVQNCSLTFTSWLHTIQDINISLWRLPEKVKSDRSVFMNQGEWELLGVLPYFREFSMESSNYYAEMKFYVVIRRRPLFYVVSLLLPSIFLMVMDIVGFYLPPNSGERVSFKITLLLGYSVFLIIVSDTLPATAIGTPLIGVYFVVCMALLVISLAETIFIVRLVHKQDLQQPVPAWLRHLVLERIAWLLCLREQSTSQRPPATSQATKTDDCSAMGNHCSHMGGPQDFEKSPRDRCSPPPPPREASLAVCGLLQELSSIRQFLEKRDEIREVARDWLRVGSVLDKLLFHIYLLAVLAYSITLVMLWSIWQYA
# Histamine H4 receptor = Histamine H4 receptor (Homo sapiens, UniProt Q9H3N8); assay: as §1, with “HRH4” for “HRH1”
# [3] = target: 5-hydroxytryptamine receptor 2B (Homo sapiens, UniProt P41595); assay: as §1, with “HTR2B” for “HRH1”
# [4] = target: Sigma non-opioid intracellular receptor 1 (Homo sapiens, UniProt Q99720); assay: as §1, with “SIGMAR1” for “HRH1”
# [5] = target: 5-hydroxytryptamine receptor 2A (Homo sapiens, UniProt P28223); assay: as §1, with “HTR2A” for “HRH1”
# [6] = target: T2, Alpha-1D adrenergic receptor (Homo sapiens, UniProt P25100); assay: as §1, with “ADRA1D” for “HRH1”
# T2 sequence (P25100 whole entry): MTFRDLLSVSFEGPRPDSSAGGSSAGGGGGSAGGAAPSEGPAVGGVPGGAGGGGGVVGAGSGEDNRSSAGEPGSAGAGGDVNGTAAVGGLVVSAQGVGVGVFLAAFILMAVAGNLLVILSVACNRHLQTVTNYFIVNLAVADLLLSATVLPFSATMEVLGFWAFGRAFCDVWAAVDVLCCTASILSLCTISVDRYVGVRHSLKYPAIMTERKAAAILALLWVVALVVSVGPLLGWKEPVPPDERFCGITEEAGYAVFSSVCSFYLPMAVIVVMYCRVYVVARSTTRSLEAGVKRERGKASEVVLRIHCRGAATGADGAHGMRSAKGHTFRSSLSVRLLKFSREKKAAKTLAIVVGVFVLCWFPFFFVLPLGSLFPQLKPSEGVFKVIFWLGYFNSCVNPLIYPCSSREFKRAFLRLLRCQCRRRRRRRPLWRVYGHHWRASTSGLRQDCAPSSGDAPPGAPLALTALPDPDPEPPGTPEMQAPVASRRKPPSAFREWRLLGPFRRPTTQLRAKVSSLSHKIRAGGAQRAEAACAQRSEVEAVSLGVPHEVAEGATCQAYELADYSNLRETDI
# [7] = target: Beta-3 adrenergic receptor (Homo sapiens, UniProt P13945); assay: as §1, with “ADRB3” for “HRH1”
# [8] = target: Beta-1 adrenergic receptor (Homo sapiens, UniProt P08588); assay: as §1, with “ADRB1” for “HRH1”
# [9] = target: 5-hydroxytryptamine receptor 5A (Homo sapiens, UniProt P47898); assay: as §1, with “HTR5A” for “HRH1”
# [10] = target: 5-hydroxytryptamine receptor 1D (Homo sapiens, UniProt P28221); assay: as §1, with “HTR1D” for “HRH1”
# [11] = target: T3, Alpha-1B adrenergic receptor (Homo sapiens, UniProt P35368); assay: as §1, with “ADRA1B” for “HRH1”
# T3 sequence (P35368 whole entry): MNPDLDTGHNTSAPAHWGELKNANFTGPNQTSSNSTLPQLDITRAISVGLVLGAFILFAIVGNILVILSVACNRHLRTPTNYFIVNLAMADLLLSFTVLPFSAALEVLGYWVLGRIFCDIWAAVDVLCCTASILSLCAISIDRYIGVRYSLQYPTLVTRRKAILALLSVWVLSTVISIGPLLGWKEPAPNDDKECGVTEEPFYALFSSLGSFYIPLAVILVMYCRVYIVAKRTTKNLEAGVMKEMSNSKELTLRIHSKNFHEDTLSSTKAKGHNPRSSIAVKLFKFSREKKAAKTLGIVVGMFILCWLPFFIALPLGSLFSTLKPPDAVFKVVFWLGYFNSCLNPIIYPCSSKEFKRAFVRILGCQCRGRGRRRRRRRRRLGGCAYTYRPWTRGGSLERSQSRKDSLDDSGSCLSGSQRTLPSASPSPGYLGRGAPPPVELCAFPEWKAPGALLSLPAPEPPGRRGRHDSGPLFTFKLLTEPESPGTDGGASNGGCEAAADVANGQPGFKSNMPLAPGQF
# Mu-type opioid receptor = Mu-type opioid receptor (Homo sapiens, UniProt P35372); assay: as §1, with “OPRM1” for “HRH1”
# [12] = target: Sodium-dependent noradrenaline transporter (Homo sapiens, UniProt P23975); assay: as §1, with “SLC6A2” for “HRH1”
# [13] = target: Sigma intracellular receptor 2 (Homo sapiens, UniProt Q5BJF2); assay: as §1, with “TMEM97” for “HRH1”
# [14] = target: T4, Alpha-2A adrenergic receptor (Homo sapiens, UniProt P08913); assay: as §1, with “ADRA2A” for “HRH1”
# T4 sequence (P08913 whole entry): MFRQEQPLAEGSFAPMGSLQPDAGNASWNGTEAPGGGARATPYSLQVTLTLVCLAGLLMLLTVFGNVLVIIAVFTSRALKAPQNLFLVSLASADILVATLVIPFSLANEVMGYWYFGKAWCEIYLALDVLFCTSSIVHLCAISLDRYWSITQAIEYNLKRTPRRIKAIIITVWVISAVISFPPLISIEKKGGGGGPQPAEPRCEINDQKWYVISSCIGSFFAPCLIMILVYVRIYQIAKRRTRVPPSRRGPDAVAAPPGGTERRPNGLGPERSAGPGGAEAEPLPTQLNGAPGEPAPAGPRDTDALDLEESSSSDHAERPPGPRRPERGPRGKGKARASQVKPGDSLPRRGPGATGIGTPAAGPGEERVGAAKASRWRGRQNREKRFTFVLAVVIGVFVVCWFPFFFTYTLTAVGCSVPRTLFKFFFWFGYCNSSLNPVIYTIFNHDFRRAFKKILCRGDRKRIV
# [15] = target: T5, 5-hydroxytryptamine receptor 2C (Homo sapiens, UniProt P28335); assay: as §1, with “HTR2C” for “HRH1”
# T5 sequence (P28335 whole entry): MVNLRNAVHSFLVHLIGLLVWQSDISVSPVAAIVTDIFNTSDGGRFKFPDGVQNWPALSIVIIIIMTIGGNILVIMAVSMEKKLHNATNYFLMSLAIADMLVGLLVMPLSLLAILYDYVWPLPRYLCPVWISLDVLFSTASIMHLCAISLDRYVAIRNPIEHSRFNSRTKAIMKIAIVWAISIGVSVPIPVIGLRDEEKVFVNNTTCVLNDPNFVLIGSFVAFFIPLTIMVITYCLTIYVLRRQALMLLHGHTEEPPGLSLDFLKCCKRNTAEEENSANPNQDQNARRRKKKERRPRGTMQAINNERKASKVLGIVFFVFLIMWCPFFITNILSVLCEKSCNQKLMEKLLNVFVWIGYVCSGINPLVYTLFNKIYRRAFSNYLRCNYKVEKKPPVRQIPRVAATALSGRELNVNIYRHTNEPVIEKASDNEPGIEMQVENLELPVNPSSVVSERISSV
# [16] = target: Kappa-type opioid receptor (Homo sapiens, UniProt P41145); assay: as §1, with “OPRK1” for “HRH1”
# Kappa-type opioid receptor, sequence (P41145 whole entry): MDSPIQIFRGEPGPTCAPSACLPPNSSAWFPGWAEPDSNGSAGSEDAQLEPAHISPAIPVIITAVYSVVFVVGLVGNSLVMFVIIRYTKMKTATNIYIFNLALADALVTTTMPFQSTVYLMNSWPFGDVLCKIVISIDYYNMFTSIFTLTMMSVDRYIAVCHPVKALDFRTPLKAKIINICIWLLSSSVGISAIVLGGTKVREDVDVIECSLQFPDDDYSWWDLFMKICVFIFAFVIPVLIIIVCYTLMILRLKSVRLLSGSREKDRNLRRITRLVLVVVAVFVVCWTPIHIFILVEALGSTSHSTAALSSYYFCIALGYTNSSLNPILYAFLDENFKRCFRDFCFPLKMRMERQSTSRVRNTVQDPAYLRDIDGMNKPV
# 5-hydroxytryptamine receptor 2B, sequence (P41595 whole entry): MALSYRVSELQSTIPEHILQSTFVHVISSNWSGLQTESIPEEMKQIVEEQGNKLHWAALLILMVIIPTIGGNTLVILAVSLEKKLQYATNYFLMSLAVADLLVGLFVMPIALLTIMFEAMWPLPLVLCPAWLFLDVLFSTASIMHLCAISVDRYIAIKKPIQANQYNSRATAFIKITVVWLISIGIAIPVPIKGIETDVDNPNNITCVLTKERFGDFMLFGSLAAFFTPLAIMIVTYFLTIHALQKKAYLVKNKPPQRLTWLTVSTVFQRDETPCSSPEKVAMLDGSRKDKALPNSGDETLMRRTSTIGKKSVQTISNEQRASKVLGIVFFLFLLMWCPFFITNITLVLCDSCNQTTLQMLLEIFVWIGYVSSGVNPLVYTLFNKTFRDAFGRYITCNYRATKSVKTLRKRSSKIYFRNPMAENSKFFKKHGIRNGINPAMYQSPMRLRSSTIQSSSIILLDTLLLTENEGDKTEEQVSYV
# Beta-1 adrenergic receptor, sequence (P08588 whole entry): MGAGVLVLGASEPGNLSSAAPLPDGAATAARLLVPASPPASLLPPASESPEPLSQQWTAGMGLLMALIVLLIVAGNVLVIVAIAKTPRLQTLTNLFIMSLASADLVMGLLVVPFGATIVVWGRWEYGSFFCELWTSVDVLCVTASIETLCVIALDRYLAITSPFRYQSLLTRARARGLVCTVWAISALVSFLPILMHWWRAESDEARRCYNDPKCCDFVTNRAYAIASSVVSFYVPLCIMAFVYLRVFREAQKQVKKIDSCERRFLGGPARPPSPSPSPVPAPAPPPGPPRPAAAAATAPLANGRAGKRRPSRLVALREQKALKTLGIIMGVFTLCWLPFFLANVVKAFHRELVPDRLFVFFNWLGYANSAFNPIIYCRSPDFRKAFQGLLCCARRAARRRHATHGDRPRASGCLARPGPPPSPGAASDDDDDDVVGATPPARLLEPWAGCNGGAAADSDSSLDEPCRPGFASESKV
# Beta-3 adrenergic receptor, sequence (P13945 whole entry): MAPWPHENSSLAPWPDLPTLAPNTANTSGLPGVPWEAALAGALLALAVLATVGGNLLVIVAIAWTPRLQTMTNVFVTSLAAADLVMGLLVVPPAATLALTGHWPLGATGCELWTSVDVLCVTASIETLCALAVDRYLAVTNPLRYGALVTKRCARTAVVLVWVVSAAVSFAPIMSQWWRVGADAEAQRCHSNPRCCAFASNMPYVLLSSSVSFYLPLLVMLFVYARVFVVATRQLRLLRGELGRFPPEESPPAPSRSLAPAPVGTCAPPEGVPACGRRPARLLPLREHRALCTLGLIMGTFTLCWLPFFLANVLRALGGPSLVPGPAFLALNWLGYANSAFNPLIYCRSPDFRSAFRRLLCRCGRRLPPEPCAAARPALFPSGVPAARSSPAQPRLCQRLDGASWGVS
# Sigma non-opioid intracellular receptor 1, sequence (Q99720 whole entry): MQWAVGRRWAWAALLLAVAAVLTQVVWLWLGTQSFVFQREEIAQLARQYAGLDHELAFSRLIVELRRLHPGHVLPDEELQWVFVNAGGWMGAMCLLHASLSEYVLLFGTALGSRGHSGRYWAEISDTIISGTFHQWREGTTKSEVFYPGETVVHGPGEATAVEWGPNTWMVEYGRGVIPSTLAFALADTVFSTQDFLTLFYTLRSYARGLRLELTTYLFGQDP
# Histamine H4 receptor, sequence (Q9H3N8 whole entry): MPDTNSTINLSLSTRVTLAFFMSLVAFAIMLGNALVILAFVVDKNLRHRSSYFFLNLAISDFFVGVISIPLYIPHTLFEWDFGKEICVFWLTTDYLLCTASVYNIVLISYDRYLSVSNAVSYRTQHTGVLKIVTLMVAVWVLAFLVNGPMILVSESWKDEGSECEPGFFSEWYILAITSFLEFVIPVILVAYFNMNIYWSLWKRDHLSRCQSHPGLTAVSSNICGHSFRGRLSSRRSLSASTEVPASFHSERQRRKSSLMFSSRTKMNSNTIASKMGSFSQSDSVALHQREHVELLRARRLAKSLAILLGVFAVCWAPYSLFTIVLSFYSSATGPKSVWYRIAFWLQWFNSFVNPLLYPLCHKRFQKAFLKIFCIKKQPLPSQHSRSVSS
# 5-hydroxytryptamine receptor 5A, sequence (P47898 whole entry): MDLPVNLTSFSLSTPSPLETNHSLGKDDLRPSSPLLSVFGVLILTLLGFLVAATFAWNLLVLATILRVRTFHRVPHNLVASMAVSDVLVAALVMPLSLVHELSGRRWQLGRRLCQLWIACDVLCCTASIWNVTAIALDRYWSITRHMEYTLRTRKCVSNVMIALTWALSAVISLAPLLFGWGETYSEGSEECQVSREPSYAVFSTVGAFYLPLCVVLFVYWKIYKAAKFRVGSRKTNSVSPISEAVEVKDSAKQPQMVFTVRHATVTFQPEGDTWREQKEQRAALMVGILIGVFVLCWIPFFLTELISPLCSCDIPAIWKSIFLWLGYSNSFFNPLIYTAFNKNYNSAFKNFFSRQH
# 5-hydroxytryptamine receptor 2A, sequence (P28223 whole entry): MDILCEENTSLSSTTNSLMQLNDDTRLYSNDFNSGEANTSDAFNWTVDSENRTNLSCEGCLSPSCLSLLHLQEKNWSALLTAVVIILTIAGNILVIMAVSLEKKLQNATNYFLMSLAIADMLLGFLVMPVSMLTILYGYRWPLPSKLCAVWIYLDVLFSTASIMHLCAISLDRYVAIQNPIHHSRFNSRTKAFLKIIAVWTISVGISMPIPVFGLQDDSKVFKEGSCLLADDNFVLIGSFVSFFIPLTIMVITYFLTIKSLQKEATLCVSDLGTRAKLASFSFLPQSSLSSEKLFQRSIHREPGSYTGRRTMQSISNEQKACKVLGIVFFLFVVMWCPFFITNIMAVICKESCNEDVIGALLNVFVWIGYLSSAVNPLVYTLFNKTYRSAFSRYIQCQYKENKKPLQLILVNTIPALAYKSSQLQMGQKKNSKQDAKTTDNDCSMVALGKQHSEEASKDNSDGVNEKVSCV
# Delta-type opioid receptor, sequence (P41143 whole entry): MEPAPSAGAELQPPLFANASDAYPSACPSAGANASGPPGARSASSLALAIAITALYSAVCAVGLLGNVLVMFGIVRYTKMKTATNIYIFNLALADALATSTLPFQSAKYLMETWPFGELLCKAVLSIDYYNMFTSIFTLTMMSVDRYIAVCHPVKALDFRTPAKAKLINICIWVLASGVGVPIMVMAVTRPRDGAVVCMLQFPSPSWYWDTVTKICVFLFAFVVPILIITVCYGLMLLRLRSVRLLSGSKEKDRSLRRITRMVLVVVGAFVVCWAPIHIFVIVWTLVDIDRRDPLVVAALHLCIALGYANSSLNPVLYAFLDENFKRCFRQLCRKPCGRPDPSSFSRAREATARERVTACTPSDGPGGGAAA
# 5-hydroxytryptamine receptor 1D, sequence (P28221 whole entry): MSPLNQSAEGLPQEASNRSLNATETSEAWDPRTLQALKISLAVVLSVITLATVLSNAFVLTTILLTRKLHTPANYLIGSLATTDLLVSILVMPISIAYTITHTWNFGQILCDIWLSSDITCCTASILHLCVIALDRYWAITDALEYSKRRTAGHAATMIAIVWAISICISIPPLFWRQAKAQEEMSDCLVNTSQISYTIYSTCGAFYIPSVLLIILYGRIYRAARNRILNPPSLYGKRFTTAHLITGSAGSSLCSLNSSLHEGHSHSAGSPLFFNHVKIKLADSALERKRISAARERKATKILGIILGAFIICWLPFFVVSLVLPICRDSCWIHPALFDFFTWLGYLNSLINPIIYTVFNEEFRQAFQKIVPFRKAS
# Mu-type opioid receptor, sequence (P35372 whole entry): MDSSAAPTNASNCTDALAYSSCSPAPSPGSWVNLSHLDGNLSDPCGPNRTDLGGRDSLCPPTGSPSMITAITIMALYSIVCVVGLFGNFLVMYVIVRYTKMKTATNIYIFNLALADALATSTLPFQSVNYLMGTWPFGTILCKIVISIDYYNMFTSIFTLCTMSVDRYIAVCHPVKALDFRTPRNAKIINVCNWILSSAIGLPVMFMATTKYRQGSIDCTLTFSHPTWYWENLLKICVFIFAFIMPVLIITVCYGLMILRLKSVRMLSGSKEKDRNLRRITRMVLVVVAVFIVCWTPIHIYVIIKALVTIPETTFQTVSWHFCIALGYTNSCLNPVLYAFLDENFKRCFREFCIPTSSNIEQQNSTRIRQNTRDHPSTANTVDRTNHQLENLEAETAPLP
# Histamine H1 receptor, sequence (P35367 whole entry): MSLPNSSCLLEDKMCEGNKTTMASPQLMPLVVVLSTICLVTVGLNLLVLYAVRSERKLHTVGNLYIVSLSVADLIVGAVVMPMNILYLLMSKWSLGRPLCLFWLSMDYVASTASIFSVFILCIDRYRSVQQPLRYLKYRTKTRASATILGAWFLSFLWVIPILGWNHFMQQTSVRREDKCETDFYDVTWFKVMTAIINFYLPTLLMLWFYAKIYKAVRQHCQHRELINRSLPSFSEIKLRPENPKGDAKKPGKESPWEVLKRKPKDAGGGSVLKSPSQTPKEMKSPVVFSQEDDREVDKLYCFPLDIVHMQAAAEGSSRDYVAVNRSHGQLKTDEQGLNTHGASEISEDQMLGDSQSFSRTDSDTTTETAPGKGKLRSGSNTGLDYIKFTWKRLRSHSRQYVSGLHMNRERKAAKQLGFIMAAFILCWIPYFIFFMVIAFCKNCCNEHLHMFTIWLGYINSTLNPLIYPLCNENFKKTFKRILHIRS
SMILES,Ki (Histamine H1 receptor) [nM],Ki [1] [µM],Ki [2] [nM],Ki (Histamine H4 receptor) [nM],Ki [3] [nM],Ki [4] [nM],Ki [5] [µM],Ki [6] [µM],Ki [7] [nM],Ki [8] [µM],Ki [9] [nM],Ki [10] [nM],Ki [11] [nM],Ki (Mu-type opioid receptor) [µM],Ki [12] [µM],Ki [13] [nM],Ki [14] [nM],Ki [15] [nM],Ki [16] [nM]
Nc1nc2c(c(N3CCNCC3)n1)CCC1=C2[C@@H]2CCCC[C@@H]2O1,1280,> 10,352,18,280,463,6.43,8.03,,,,,,,,,,,
O=C(Nc1ccc(Cl)cc1)Nc1cccc(-c2cccc(N3CCCC3)n2)c1,,,,,,,,,> 10000,> 10,,,,,,,,,
COc1ccc(NS(=O)(=O)c2sc3ccc(Cl)cc3c2C)cc1N1CCNCC1,,,988,,804,598,,,2100,4.46,1910,1080,2660,3.58,5.62,663,590,1280,898

# Reference: ChEMBL document CHEMBL5442175, “EUbOPEN Chemogenomics Library - PDSP Secondary Binding” (2024)
